Data taken from patent US11230525B2, “Organic sulfur compound, method for preparing same, and pharmaceutical composition for preventing or treating cancer or an inflammatory disease, containing same as active ingredient” (SOOKMYUNG WOMENS UNIVERSITY INDUSTRY-ACADEMIC COOPERATION …, priority 2016, dated 2022).

What was measured:
[1] = tested on: lung cancer cell line (NCl-H23); assay: Cancer proliferation inhibitory activity (SRB, GI50), NCI-H23; assay type: cell-based; conditions: Homo sapiens, 48 hours
Source text: (§1) Particularly, the cancer proliferation inhibitory activity of the compounds of comparative examples (Ajoene and the compounds isosteric to Ajoene wherein R1 is allyl or benzyl) and the compounds of examples of the present invention (the compounds not isosteric to Ajoene wherein R^1 is phenyl) was investigated in human cancer cell lines (renal cancer cell line (ACHN), breast cancer cell line (MDA-MB-231), colorectal cancer cell line (HCT-15), prostate cancer cell line (PC-3), gastric cancer cell line (NUGC-3) and lung cancer cell line (NCl-H23)).
(§2) At this time, the cancer cell lines (renal cancer cell line (ACHN), breast cancer cell line (MDA-MB-231), colorectal cancer cell line (HCT-15), prostate cancer cell line (PC-3), gastric cancer cell line (NUGC-3) and lung cancer cell line (NCl-H23)) above were purchased from American Type Culture Collection (Manassas, Va., USA). Cells were cultured in RPMI 1640 supplemented with 10% fetal bovine serum, which were maintained 37° C. under 5% CO2 wet atmosphere. The cells were distributed in a 96-well plate, which was not treated (treated only with 0.1% DMSO) or treated with the compounds of examples of the present (0.1 μM to 10 μM). 48 hours later, the cells were fixed in 50% trichloroacetic acid, followed by staining with 1% acetic acid containing 0.4% sulphorodamine B dissolved therein. The non-conjugated dye was removed by washing with 1% acetic acid, and the protein conjugated dye was extracted with 10 mM Tris base (pH 10.5). Then, OD540 was measured with VersaMax microplate reader (Molecular devices, Sunnyvale, Calif., USA). GI50 was calculated by using GraphPad Prism software (GraphPad Software, Inc., San Diego, Calif., USA).
(§3) Based on the results obtained in experimental example 1-1 above, the derivatives wherein R^1 is phenyl were additionally synthesized. The cancer proliferation inhibitory activity of the derivatives was evaluated by the same manner as described in experimental example 1-1.

[2] = tested on: renal cancer cell line (ACHN); assay: Cancer proliferation inhibitory activity (SRB, GI50), ACHN; assay type: cell-based; conditions: Homo sapiens, 48 hours
Source text: as §1, §2, §3

[3] = tested on: breast cancer cell line (MDA-MB-231); assay: Cancer proliferation inhibitory activity (SRB, GI50), MDA-MB-231; assay type: cell-based; conditions: Homo sapiens, 48 hours
Source text: as §1, §2, §3

[4] = tested on: gastric cancer cell line (NUGC-3); assay: Cancer proliferation inhibitory activity (SRB, GI50), NUGC-3; assay type: cell-based; conditions: Homo sapiens, 48 hours
Source text: as §1, §2, §3

[5] = biological target: T1, HDAC 8 (Homo sapiens, UniProt Q9BY41); assay: HDAC enzyme fluorescence assay, HDAC 8; assay type: biochemical; set-up: Inhibitory activity (%) HDAC 8: concentration or dose not given beside the values; conditions: for Inhibitory activity (%) HDAC 8: (HDAC inhibitory activity of example compound/HDAC inhibitory activity of SAHA) × 100
T1 sequence (Q9BY41 1-377): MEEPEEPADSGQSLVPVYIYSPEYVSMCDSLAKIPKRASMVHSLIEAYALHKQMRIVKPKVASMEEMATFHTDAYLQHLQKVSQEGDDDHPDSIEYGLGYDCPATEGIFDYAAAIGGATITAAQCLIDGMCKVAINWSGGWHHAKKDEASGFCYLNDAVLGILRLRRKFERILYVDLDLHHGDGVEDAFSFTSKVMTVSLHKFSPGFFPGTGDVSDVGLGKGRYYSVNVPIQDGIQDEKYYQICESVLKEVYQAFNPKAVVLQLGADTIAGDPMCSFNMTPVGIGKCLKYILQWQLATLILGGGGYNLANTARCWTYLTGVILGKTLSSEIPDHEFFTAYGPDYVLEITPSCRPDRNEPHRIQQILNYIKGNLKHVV
Method: Particularly, HDAC enzyme analysis was performed based on a uniform fluorescence emission assay. First, the compounds of examples of the present invention or comparative example 1 were diluted at different concentrations, which were treated to the analysis buffer containing 25 mM HEPES (pH 8.0), 137 mM NaCl, 1 mM MgCl2 and 2.7 mM KCL, followed by culture of the recombinant HDAC enzyme. 10 minutes later, Boc-Lys(acetyl)-AMC, the fluorescence inducing substrate, was added thereto, followed by further culture at 37° C. At this time, the concentration of the fluorescence inducing substrate and the culture time were adjusted according to the isotypes of the HDAC enzyme. The reaction was terminated by treating trypsin at room temperature for 20 minutes. The fluorescence intensity was measured using a fluorescence analyzer at an excitation wavelength of 380 nm and an emission wavelength of 460 nm, respectively. The inhibition rate was calculated from the measured fluorescence intensity of each well with comparing to that of the control well. IC50 of the compound was calculated by analyzing the dose-reaction inhibition curve.
The HDAC 8 inhibitory activity was presented as percentage of relative activity by the inhibitory activity of SAHA (Vorinostat) used as a reference compound.

[6] = tested on: prostate cancer cell line (PC-3); assay: Cancer proliferation inhibitory activity (SRB, GI50), PC-3; assay type: cell-based; conditions: Homo sapiens, 48 hours
Source text: as §1, §2, §3

[7] = tested on: colorectal cancer cell line (HCT-15); assay: Cancer proliferation inhibitory activity (SRB, GI50), HCT-15; assay type: cell-based; conditions: Homo sapiens, 48 hours
Source text: as §1, §2, §3

Row | GI50 [1] | GI50 [2] | GI50 [3] | GI50 [4] | Inhibitory activity (%) HDAC 8 [5] | GI50 [6] | GI50 [7] | IC50 ([5]; recombinant HDAC enzyme, Boc-Lys(acetyl)-AMC, read-out: IC50 HDAC 8) | Compound
1 | 1.58 µM | 1.57 µM | 1.38 µM | 1.59 µM | 78.4% | 1.99 µM | 2.17 µM |  | CCCSS/C=C/C[S+]([O-])c1cccc(OC)c1 (centres unmarked) [Example 17, (E)-1-(3-(3-methoxyphenylsulfinyl)prop-1-enyl)-2-propyldisulfane]
2 | 7.69 µM | 7.11 µM | 3.24 µM | 6.84 µM | 37.1% | 3.89 µM | 10.4 µM |  | [O-][S+](C/C=C/SSCc1ccc(F)cc1)c1ccccc1 (centres unmarked) [Example 7, (E)-1-(4-fluorobenzyl)-2-(3-(phenylsulfinyl)prop-1-enyl)disulfane]
3 | 2.03 µM | 2.72 µM | 3.58 µM | 1.66 µM | 73.8% | 4.24 µM | 2.33 µM |  | COc1ccc(CSS/C=C\C[S+]([O-])c2ccccc2)cc1 (centres unmarked) [Example 10, (Z)-1-(4-methoxybenzyl)-2-(3-(phenylsulfinyl)prop-1-enyl)disulfane]
4 | 3.46 µM | 3.72 µM | 4.34 µM | 3.78 µM | 114.3% | 2.96 µM | 2.6 µM |  | COc1cccc([S+]([O-])C/C=C\SSCc2ccccc2)c1 (centres unmarked) [Example 20, (Z)-1-benzyl-2-(3-(3-methoxyphenylsulfinyl)prop-1-enyl)disulfane]
5 | 1.49 µM | 1.34 µM | 1.09 µM | 2.65 µM | 68.1% | 1.35 µM | 1.45 µM |  | COc1ccc([S+]([O-])C/C=C\SSCc2ccc(F)cc2)cc1 (centres unmarked) [Example 34, (Z)-1-(4-fluorobenzyl)-2-(3-(4-methoxyphenylsulfinyl)prop-1-enyl)disulfane]
6 | 4.85 µM | 5.47 µM | 3.12 µM | 5.92 µM | 72.6% | 3.76 µM | 4.37 µM |  | COc1cccc([S+]([O-])C/C=C/SSCc2ccc(Cl)cc2)c1 (centres unmarked) [Example 23, (E)-1-(4-chlorobenzyl)-2-(3-(3-methoxyphenylsulfinyl)prop-1-enyl)disulfane]
7 | 4.24 µM | 5.06 µM | 7.28 µM | 3.77 µM | 73.5% | 4.47 µM | 3.94 µM |  | C=CCSS/C=C\C[S+]([O-])c1ccc(OC)cc1 (centres unmarked) [Example 28, (Z)-1-allyl-2-(3-(4-methoxyphenylsulfinyl)prop-1-enyl)disulfane]
8 | 1.41 µM | 1.65 µM | 2.2 µM | 2.04 µM | 69.9% | 2.41 µM | 1.48 µM |  | CCCSS/C=C/C[S+]([O-])c1ccc(OC)cc1 (centres unmarked) [Example 29, (E)-1-(3-(4-methoxyphenylsulfinyl)prop-1-enyl)-2-propyldisulfane]
9 |  |  |  |  | 37.5% |  |  |  | C=CCSS/C=C\C[S+]([O-])c1ccccc1 (centres unmarked) [Example 2, (Z)-1-allyl-2-(3-(phenylsulfinyl)prop-1-enyl)disulfane]
10 | 3.58 µM | 3.23 µM | 2.14 µM | 2.36 µM | 52.9% | 3.02 µM | 2.43 µM | 0.29 µM | CCCSS/C=C\C[S+]([O-])c1ccc(OC)cc1 (centres unmarked) [Example 30, (Z)-1-(3-(4-methoxyphenylsulfinyl)prop-1-enyl)-2-propyldisulfane]
11 |  |  |  |  | 138.9% |  |  |  | COc1cccc([S+]([O-])C/C=C/SSCc2ccc(Cl)c(Cl)c2)c1 (centres unmarked) [Example 25, (E)-1-(3,4-dichlorobenzyl)-2-(3-(3-methoxyphenylsulfinyl)prop-1-enyl)disulfane]
12 |  |  |  |  | 74.6% |  |  |  | COc1ccc([S+]([O-])C/C=C/SSCc2ccccc2)cc1 (centres unmarked) [Example 31, (E)-1-benzyl-2-(3-(4-methoxyphenylsulfinyl)prop-1-enyl)disulfane]
13 | 3.59 µM | 3.26 µM | 4.64 µM | 2.05 µM |  | 2.31 µM | 4.96 µM |  | C=CC[S+]([O-])C/C=C\SSCc1ccccc1 (centres unmarked) [Comparative Example 3, (Z)-1-(3-(allylsulfinyl)prop-1-enyl)-2-benzyldisulfane, reference compound]
14 | 2.83 µM | 4.1 µM |  |  |  | 2.04 µM | 2.27 µM |  | [O-][S+](C/C=C/SSCc1ccc(F)cc1)Cc1ccccc1 (centres unmarked) [Comparative Example 8, (E)-1-(3-(benzylsulfinyl)prop-1-enyl)-2-(4-fluorobenzyl)disulfane, reference compound]
15 | 4.41 µM | 4.43 µM | 5.45 µM | 10.3 µM |  | 6.85 µM | 9.1 µM |  | C=CCSS/C=C/C[S+]([O-])Cc1ccccc1 (centres unmarked) [Comparative Example 5, (E)-1-allyl-2-(3-(benzylsulfinyl)prop-1-enyl)disulfane, reference compound]
16 | 6.41 µM | 4.22 µM |  |  |  | 3.88 µM |  |  | [O-][S+](C/C=C/SSCc1ccccc1)Cc1ccccc1 (centres unmarked) [Comparative Example 7, (E)-1-benzyl-2-(3-(benzylsulfinyl)prop-1-enyl)disulfane, reference compound]
17 | 5.98 µM | 5.32 µM |  | 8.07 µM |  | 3.28 µM | 5.93 µM |  | C=CCSS/C=C\C[S+]([O-])Cc1ccccc1 (centres unmarked) [Comparative Example 4, (Z)-1-allyl-2-(3-(benzylsulfinyl)prop-1-enyl)disulfane, reference compound]
18 |  | 2.32 µM | 3.24 µM |  |  |  |  |  | [O-][S+](C/C=C\SSCc1ccc(F)cc1)Cc1ccccc1 (centres unmarked) [Comparative Example 9, (Z)-1-(3-(benzylsulfinyl)prop-1-enyl)-2-(4-fluorobenzyl)disulfane, reference compound]
19 | 2.93 µM |  | 2.19 µM | 3.27 µM |  |  | 3.03 µM |  | CCCSS/C=C/C[S+]([O-])Cc1ccccc1 (centres unmarked) [Comparative Example 6, (E)-1-(3-(benzylsulfinyl)prop-1-enyl)-2-propyldisulfane, reference compound]
20 |  |  |  |  | 105.3% |  |  |  | C=CCSS/C=C\C[S+]([O-])c1cccc(OC)c1 (centres unmarked) [Example 16, (Z)-1-allyl-2-(3-(3-methoxyphenylsulfinyl)prop-1-enyl)disulfane]
21 |  |  |  |  | 115.2% |  |  |  | CCCSS/C=C\C[S+]([O-])c1ccccc1 (centres unmarked) [Example 4, (Z)-1-(3-(phenylsulfinyl)prop-1-enyl)-2-propyldisulfane]
22 |  |  |  |  | 24.9% |  |  |  | [O-][S+](C/C=C\SSCc1ccc(F)cc1)c1ccccc1 (centres unmarked) [Example 8, (Z)-1-(4-fluorobenzyl)-2-(3-(phenylsulfinyl)prop-1-enyl)disulfane]
23 |  |  |  |  | 32.1% |  |  |  | C=CCSS/C=C/C[S+]([O-])c1ccccc1 (centres unmarked) [Example 1, (E)-1-allyl-2-(3-(phenylsulfinyl)prop-1-enyl)disulfane]
